Where two headings read alike, the source gives them in different places.
Key:
[1] = target: FGFR4 in MDA-MB-453 cells (Homo sapiens, UniProt P22455); assay: Target occupancy assay with biotinylated covalent probe I-127; assay type: cell-based
Protocol: In order to assess free FGFR4 protein a biotinylated covalent probe was utilized. […] The reaction was incubated for 2 hr at room temperature. The samples and probe mixture were transferred to a FGFR4-coated MSD plate for 2 hr at room temperature. MSD signals were obtained with an anti-streptavidin Sulfo-tag (Meso Scale) antibody for 1 hr at room temperature. […] If a compound completely (100%) covalently modies FGFR4 no free FGFR4 should be available for covalent modification by the biotinylated probe and subsequent binding to streptavidin and detection.

FGFR4-WT = FGFR4-WT (Homo sapiens (Human), UniProt P22455); assay: Omnia assay for potency assessment against FGFR4 enzyme; assay type: biochemical
Protocol: A 10× stock solution of FGFR4-WT (PR4380C), (from Invitrogen, Carlsbad, Calif.) corresponding to method a in Table 7, was prepared as described below. Alternatively, a 10× stock solution of FGFR4-WT (F01-11G), (SignalChem, Richmond, BC) corresponding to method b in Table 7, was prepared as described below. A solution of 1.4×ATP (AS001A) and 5× Tyr-Sox conjugated peptide substrate (KNZ3101) were prepared in 1× kinase reaction buffer consisting of 20 mM Tris, pH 7.5, 5 mM MgCl2, 1 mM EGTA, 5 mM β-glycerophosphate, 5% glycerol (10× stock, KB002A) and 0.2 mM DTT (DS001A). […] The serially diluted compounds were prepared on a Tecan EVO100. A second addition of 10 μl of Tyr-Sox FGFR4 substrate was added to each well and the kinase reactions were started with the addition of 35 μL of 1.4×ATP. The reactions were monitored every 71 seconds for 240 minutes at λex360/λem485 in a Synergy plate reader from BioTek (Winooski, Vt.).

pFGFR4 in Huh7 cells = pFGFR4 in Huh7 cells (Homo sapiens (Human), UniProt P22455); assay: FGFR4 signaling, Meso Scale assay (MSD), Method B, Huh7
Protocol: Huh7 cells were grown in DMEM (Invitrogen, Carlsbad, Calif.) supplemented with 10% FBS (Invitrogen) and 1% Penicillin-Streptomycin (P/S, Lonza, Walkersville, Md.).
For the MSD and ELISA assays, total FGFR4 antibodies were obtained from R&D Systems (Minneapolis, Minn.) and used at 1:500. […] Phospho-FGFR antibodies were obtained from Cell Signaling (Danvers, Mass.) or R&D Systems and used at 1:1000. The phopho-FGFR antibody from Cell Signaling was used for immunoblotting, whereas the phopho-FGFR antibody from R&D was used for MSD and ELISA assays. Secondary antibodies were used at 1:10,000. The goat anti-mouse IgG IRDye 800CW antibody was obtained from LiCor Biosciences (Lincoln, Nebr.) and the goat anti-rabbit IgG Alexa Fluor 680 was obtained from Invitrogen. The anti-rabbit Sulfo-tag and anti-streptavidin Sulfo-tag antibodies was obtained from Meso Scale Discovery (Gaithersburg, Md.), and were used at 1:1000 and 1:5000, respectively.
After treatment, the cells were washed with cold PBS (Invitrogen), and were immediately lysed by freeze/thawing 3× in 32 μL of cold Cell Extraction Buffer (Invitrogen), which was supplemented with Complete Protease inhibitors (Roche) and PhosphoSTOP (Roche) phosphatase inhibitors.
MSD plates (Meso Scale Discovery) were coated with total FGFR-4 antibodies overnight at 4° C. A lysate (25 μL) was added to the MSD plate overnight at 4° C. The MSD signals were obtained by incubating with a phospho-FGFR antibody (R&D Systems) and an anti-rabbit sulfo-tag antibody (Meso Scale), for 2 hr at room temperature. […] The data was fitted using a sigmoidal curve analysis program (Graph Pad Prism version 5) with variable Hill slope to determine the EC50 values.

[2] = method b: [FGFR4-WT]=2.5 nM (SignalChem), [ATP]=250 uM, [Y10-Sox]=10 uM
[3] = method a: [FGFR4-WT]=10 nM (Invitrogen), [ATP]=300 uM, [Y10-Sox]=10 uM

Sequence of FGFR4-WT (P22455 22-802): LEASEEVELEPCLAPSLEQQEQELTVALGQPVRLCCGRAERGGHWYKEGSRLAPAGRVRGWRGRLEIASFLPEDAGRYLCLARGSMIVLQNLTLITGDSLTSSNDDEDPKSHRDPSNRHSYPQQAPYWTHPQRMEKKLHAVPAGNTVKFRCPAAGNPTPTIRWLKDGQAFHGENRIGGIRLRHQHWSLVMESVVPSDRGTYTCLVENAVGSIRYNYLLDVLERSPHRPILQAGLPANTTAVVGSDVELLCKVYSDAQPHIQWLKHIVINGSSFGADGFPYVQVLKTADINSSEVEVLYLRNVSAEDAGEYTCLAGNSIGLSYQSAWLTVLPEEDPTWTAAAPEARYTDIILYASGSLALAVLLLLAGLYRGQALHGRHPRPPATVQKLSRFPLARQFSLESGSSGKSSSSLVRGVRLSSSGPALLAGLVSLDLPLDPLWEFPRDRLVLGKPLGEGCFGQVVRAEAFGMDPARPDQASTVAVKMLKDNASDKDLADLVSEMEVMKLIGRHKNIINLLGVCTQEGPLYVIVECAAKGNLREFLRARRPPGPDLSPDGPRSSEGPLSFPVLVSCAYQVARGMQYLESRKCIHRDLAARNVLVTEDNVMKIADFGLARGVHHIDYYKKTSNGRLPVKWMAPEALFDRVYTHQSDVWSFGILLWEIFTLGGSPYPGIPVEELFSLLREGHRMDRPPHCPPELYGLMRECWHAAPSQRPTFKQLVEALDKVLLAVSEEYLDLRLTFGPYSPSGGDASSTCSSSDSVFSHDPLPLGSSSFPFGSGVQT
Sequence of FGFR4 in MDA-MB-453 cells (P22455 22-802 limits assumed): as the sequence (P22455 22-802) above
Sequence of pFGFR4 in Huh7 cells (P22455 22-802): as above

| SMILES | EC50 [1] | IC50 (FGFR4-WT; [2]) | IC50 (FGFR4-WT; [3]) | EC50 (pFGFR4 in Huh7 cells) | IC50 (FGFR4-WT) |
| --- | --- | --- | --- | --- | --- |
| C=CC(=O)NC1CCCCC1Nc1ncc2c(n1)N(Cc1ccccc1)C(=O)N(c1c(Cl)c(OC)cc(OC)c1Cl)C2 (racemic) [Compound I-63] | 101 to 500 nM |  |  |  |  |
| CCC(=O)Nc1ccccc1Nc1ncc2c(n1)N(Cc1ccccc1)C(=O)N(c1c(Cl)c(OC)cc(OC)c1Cl)C2 [Compound I-236] | > 1000 nM | 101 to 500 nM |  |  |  |
| C=CC(=O)N[C@H]1CCCC[C@H]1Nc1ncc2c(n1)N(C)C(=O)N(c1cc(OC)c(OC)c(OC)c1)C2 [Compound I-220] |  |  | > 1000 nM | > 1000 nM |  |
| C=CC(=O)Nc1ccccc1Nc1ncc2c(n1)N(C1CCCN(C(=O)OC(C)(C)C)C1)C(=O)N(c1cc(OC)cc(OC)c1)C2 (stereo not drawn) [Compound I-36] |  |  | < 100 nM | 101 to 500 nM |  |
| C=CC(=O)Nc1ccccc1Nc1ncc2c(n1)NC(=O)N(c1cc(OC)cc(OC)c1)C2 [Compound I-125] |  |  | 101 to 500 nM | > 1000 nM |  |
| C=CC(=O)NC1COCC1Nc1ncc2c(n1)N(C)C(=O)N(c1cc(C(=O)Nc3cccc(C(C)(C)C#N)c3)ccc1Cl)C2 (stereo not drawn) [Compound I-246] |  |  | 101 to 500 nM | 101 to 500 nM |  |
| C=CC(=O)NC1COCC1Nc1ncc2c(n1)N(CC)C(=O)N(c1c(Cl)c(OC)cc(OC)c1Cl)C2 (stereo not drawn) [Compound I-217] |  |  | < 100 nM | < 100 nM |  |
| C=CC(=O)Nc1ccccc1Nc1ncc2c(n1)N(Cc1cccc(C(N)=O)c1)C(=O)N(c1cc(OC)cc(OC)c1)C2 [Compound I-97] |  |  | < 100 nM | 101 to 500 nM |  |
| C=CC(=O)NC1COCC1Nc1ncc2c(n1)N(Cc1cc[nH]n1)C(=O)N(c1c(Cl)c(OC)cc(OC)c1Cl)C2 (stereo not drawn) [Compound I-216] |  |  | < 100 nM | 101 to 500 nM |  |
| C=CC(=O)NC1COCC1Nc1ncc2c(n1)N(Cc1cnn(C)c1)C(=O)N(c1c(Cl)c(OC)cc(OC)c1Cl)C2 (stereo not drawn) [Compound I-213] |  |  | < 100 nM | < 100 nM |  |
| C=CC(=O)N[C@H]1CCCC[C@H]1Nc1ncc2c(n1)N(C)C(=O)N(c1c(F)c(OC)cc(OC)c1Br)C2 [Compound I-228] |  |  | 101 to 500 nM | 101 to 500 nM |  |
| C=CC(=O)Nc1cc(C)ccc1Nc1ncc2cc(-c3c(Cl)c(OC)cc(OC)c3Cl)c(=O)n(C)c2n1 [Compound I-243] |  |  | < 100 nM | < 100 nM |  |
| C=CC(=O)Nc1cc(C)ccc1Nc1ncc2c(n1)N(C)C(=O)N(c1cc(OC)cc(OC)c1)C2 [Compound I-41] |  |  | < 100 nM | 101 to 500 nM |  |
| C=CC(=O)Nc1cc(C(F)(F)F)ccc1Nc1ncc2c(n1)N(C)C(=O)N(c1cc(OC)cc(OC)c1)C2 [Compound I-42] |  |  | < 100 nM | < 100 nM |  |
| C=CC(=O)Nc1ccccc1Nc1ncc2c(n1)N(CCF)C(=O)N(c1cc(OC)cc(OC)c1)C2 [Compound I-102] |  |  | < 100 nM | < 100 nM |  |
| C=CC(=O)Nc1cc(N2CCN(C(=O)CCCC(=O)NCCCOCCOCCOCCCNC(=O)CCCC[C@@H]3SC[C@@H]4NC(=O)N[C@@H]43)CC2)ccc1Nc1ncc2c(n1)N(C)C(=O)N(c1c(Cl)c(OC)cc(OC)c1Cl)C2 [Compound I-127] |  |  |  | 101 to 500 nM | < 100 nM |
| C=CC(=O)Nc1cc(C(=O)NC2CCN(C)CC2)ccc1Nc1ncc2c(n1)N(C)C(=O)N(c1cc(OC)cc(OC)c1)C2 [Compound I-151] |  |  | < 100 nM | > 1000 nM |  |
| C=CC(=O)Nc1ccccc1Nc1ncc2c(n1)N(C1COC1)C(=O)N(c1cc(OC)cc(OC)c1)C2 [Compound I-88] |  |  | < 100 nM | 101 to 500 nM |  |
| C=CC(=O)Nc1ccccc1Nc1ncc2c(n1)N(CCF)C(=O)N(c1cc(OC)cc(OC)c1Cl)C2 [Compound I-110] |  |  | < 100 nM | < 100 nM |  |
| C=CC(=O)Nc1ccccc1Nc1ncc2c(n1)N(C)C(=O)N(c1c(F)c(OC)cc(OC)c1F)C2 [Compound I-131] |  |  | < 100 nM | < 100 nM |  |
| C=CC(=O)Nc1ccccc1Nc1ncc2cc(-c3c(Cl)c(OC)cc(OC)c3Cl)c(=O)n(C)c2n1 [Compound I-244] |  |  | < 100 nM | < 100 nM |  |
| C=CC(=O)Nc1ccccc1Nc1ncc2c(n1)N(Cc1ccnc(N)c1)C(=O)N(c1cc(OC)cc(OC)c1)C2 [Compound I-87] |  |  | < 100 nM | < 100 nM |  |
| C=CC(=O)NC1CN(c2ccncn2)CC1Nc1ncc2c(n1)N(C)C(=O)N(c1c(Cl)c(OC)cc(OC)c1Cl)C2 (stereo not drawn) [Compound I-201] |  |  | < 100 nM | 101 to 500 nM |  |

| SMILES | EC50 [1] | IC50 (FGFR4-WT; [2]) | IC50 (FGFR4-WT; [3]) | EC50 (pFGFR4 in Huh7 cells) | IC50 (FGFR4-WT) |
| --- | --- | --- | --- | --- | --- |
| C=CC(=O)N[C@@H]1COC[C@@H]1Nc1ncc2c(n1)N(C)C(=O)N(c1c(Cl)c(OC)cc(OC)c1Cl)C2 [Compound I-185] |  |  | > 1000 nM | > 1000 nM |  |
| C=CC(=O)NC1CCCCC1Nc1ncc2c(n1)N(Cc1csc(C)n1)C(=O)N(c1c(Cl)c(OC)cc(OC)c1Cl)C2 (stereo not drawn) [Compound I-137] |  |  | < 100 nM | 101 to 500 nM |  |
| C=CC(=O)N[C@H]1CCCC[C@H]1Nc1ncc2cc(-c3c(Cl)c(OC)cc(OC)c3Cl)c(=O)n(C)c2n1 [Compound I-223] |  |  |  | < 100 nM | < 100 nM |
| C=CC(=O)Nc1ccccc1Nc1ncc2c(n1)N(Cc1cccc(F)c1)C(=O)N(c1c(Cl)c(OC)cc(OC)c1Cl)C2 [Compound I-12] | 101 to 500 nM | 101 to 500 nM |  |  |  |
| C=CC(=O)NC1CCCCC1Nc1ncc2c(n1)N(Cc1cccnc1)C(=O)N(c1c(Cl)c(OC)cc(OC)c1Cl)C2 (racemic) [Compound I-35] | 101 to 500 nM |  |  |  |  |
| C=CC(=O)NC1COCC1Nc1ncc2c(n1)N(C)C(=O)N(c1c(F)c(OC)cc(OC)c1F)C2 (stereo not drawn) [Compound I-198] |  |  | < 100 nM | < 100 nM |  |
| C=CC(=O)NC1COCC1Nc1ncc2c(n1)N(C)C(=O)N(c1c(F)c(OC)cc(OC)c1Cl)C2 (stereo not drawn) [Compound I-206] |  |  | < 100 nM | < 100 nM |  |
| C=CC(=O)Nc1ccccc1Nc1ncc2c(n1)N(Cc1ccc(F)cc1)C(=O)N(c1c(Cl)c(OC)cc(OC)c1Cl)C2 [Compound I-25] |  | 101 to 500 nM |  | 101 to 500 nM |  |
| C=CC(=O)Nc1ccccc1Nc1ncc2c(n1)N(Cc1ccccc1)C(=O)N(c1c(Cl)c(OC)cc(OC)c1Cl)C2 [Compound I-3] | < 100 nM | < 100 nM |  |  |  |
| C=CC(=O)N(C)C1COCC1Nc1ncc2c(n1)N(C)C(=O)N(c1c(Cl)c(OC)cc(OC)c1Cl)C2 (stereo not drawn) [Compound I-218] |  |  | > 1000 nM | > 1000 nM |  |
| C=CC(=O)NC1COCC1Nc1ncc2c(n1)N(C)C(=O)N(c1ccc(OC)cc1)C2 (stereo not drawn) [Compound I-209] |  |  | > 1000 nM | > 1000 nM |  |
| C=CC(=O)Nc1cc(-c2nnnn2C)ccc1Nc1ncc2c(n1)N(C)C(=O)N(c1c(Cl)c(OC)cc(OC)c1Cl)C2 [Compound I-153] |  |  | < 100 nM | < 100 nM |  |
| C=CC(=O)Nc1ccccc1Nc1ncc2c(n1)N(Cc1cscn1)C(=O)N(c1cc(OC)cc(OC)c1)C2 [Compound I-64] |  |  | < 100 nM | 101 to 500 nM |  |
| C=CC(=O)Nc1ccc(C(F)(F)F)cc1Nc1ncc2c(n1)N(C)C(=O)N(c1cc(OC)cc(OC)c1)C2 [Compound I-50] |  |  | < 100 nM | 101 to 500 nM |  |
| C=CC(=O)Nc1ccccc1Nc1ncc2c(n1)N(CC(F)F)C(=O)N(c1cc(OC)cc(OC)c1)C2 [Compound I-99] |  |  | < 100 nM | 101 to 500 nM |  |
| C=CC(=O)Nc1cc(C(F)(F)F)ccc1Nc1ncc2c(n1)N(Cc1ccccc1)C(=O)N(c1c(Cl)c(OC)cc(OC)c1Cl)C2 [Compound I-6] |  | 501 to 999 nM |  | 101 to 500 nM |  |
| C=CC(=O)Nc1cc(N(C)CCOC)ccc1Nc1ncc2c(n1)N(Cc1ccccc1)C(=O)N(c1cc(OC)cc(OC)c1)C2 [Compound I-13] |  | 101 to 500 nM |  | 101 to 500 nM |  |
| C=CC(=O)NC1CCCCC1Nc1ncc2c(n1)N(CC(F)F)C(=O)N(c1c(F)c(OC)cc(OC)c1F)C2 (stereo not drawn) [Compound I-115] |  |  | 101 to 500 nM | 101 to 500 nM |  |
| C=CC(=O)Nc1ccccc1Nc1ncc2c(n1)N(CC1CC1)C(=O)N(c1cc(OC)cc(OC)c1)C2 [Compound I-98] |  |  | < 100 nM | < 100 nM |  |
| C=CC(=O)Nc1ccccc1Nc1ncc2c(n1)N(CCOC)C(=O)N(c1cc(OC)cc(OC)c1)C2 [Compound I-59] |  |  | < 100 nM | 101 to 500 nM |  |
| C=CC(=O)Nc1ccccc1Nc1ncc2c(n1)N(Cc1cn[nH]c1)C(=O)N(c1cc(OC)cc(OC)c1)C2 [Compound I-121] |  |  | < 100 nM | < 100 nM |  |
| C=CC(=O)NC1CCCCC1Nc1ncc2c(n1)N(Cc1ccn(C)c(=O)c1)C(=O)N(c1c(Cl)c(OC)cc(OC)c1Cl)C2 (stereo not drawn) [Compound I-132] |  |  | < 100 nM | 101 to 500 nM |  |
| C=CC(=O)Nc1ccccc1Nc1ncc2c(n1)N(Cc1cn[nH]c1)C(=O)N(c1c(Cl)c(OC)cc(OC)c1Cl)C2 [Compound I-124] |  |  | < 100 nM | < 100 nM |  |
